From ChEMBL document CHEMBL1150258, “Predicting binding modes from free energy calculations” (J Med Chem, 2008)
pIC50: −log10 of the molar value.

target: Human immunodeficiency virus type 1 reverse transcriptase (Human immunodeficiency virus 1, UniProt Q72547); assay: Inhibition of HIV1 reverse transcriptase in […]; type: cell-based

| pIC50 | Compound |
| --- | --- |
| 5.40 | CCC(=O)Nc1c(Cc2cc(C)cc(C)c2)c(CC)c(C)[nH]c1=O |
| 6.40 | CCc1c(C)[nH]c(=O)c(NC(C)=O)c1Cc1cc(C)cc(C)c1 |
| 7.80 | CCNc1c(Cc2cc(C)cc(C)c2)c(CC)c(C)[nH]c1=O |
| 7.80 | CCCN(C)c1c(Cc2cc(C)cc(C)c2)c(CC)c(C)[nH]c1=O |
| 7.80 | CCc1c(C)[nH]c(=O)c(N(CC)CC)c1Cc1cc(C)cc(C)c1 |
| 6.90 | CCCCNc1c(Cc2cc(C)cc(C)c2)c(CC)c(C)[nH]c1=O |
| 8.40 | CCc1c(C)[nH]c(=O)c(N(C)CCCCCO)c1Cc1cc(C)cc(C)c1 |
| 8.10 | CCc1c(C)[nH]c(=O)c(N(C)CC)c1Cc1cc(C)cc(C)c1 |
| 8.22 | CCc1c(C)[nH]c(=O)c(N(C)C(C)COC)c1Cc1cc(C)cc(C)c1 (centres undefined) |
| 6.80 | CCc1c(C)[nH]c(=O)c(N2CCOCC2)c1Cc1cc(C)cc(C)c1 |
| 7.60 | CCc1c(C)[nH]c(=O)c(N(C)CCCSC)c1Cc1cc(C)cc(C)c1 |
| 4.30 | CCCCN(CCCC)c1c(Cc2cc(C)cc(C)c2)c(CC)c(C)[nH]c1=O |
| 7.10 | CCc1c(C)[nH]c(=O)c(NC=O)c1Cc1cc(C)cc(C)c1 |
| 8.00 | CCc1c(C)[nH]c(=O)c(NC)c1Cc1cc(C)cc(C)c1 |
| 7.90 | CCc1c(C)[nH]c(=O)c(-n2cccc2)c1Cc1cc(C)cc(C)c1 |
| 8.00 | CCc1c(C)[nH]c(=O)c(N(C)CCCCCO)c1Cc1cccc(C)c1 |
| 8.70 | CCc1c(C)[nH]c(=O)c(N(C)CCOC)c1Cc1cc(C)cc(C)c1 |
| 7.70 | CCCNc1c(Cc2cc(C)cc(C)c2)c(CC)c(C)[nH]c1=O |
| 4.00 | CCCC(=O)Nc1c(Cc2cc(C)cc(C)c2)c(CC)c(C)[nH]c1=O |

Further lines, the molecule ahead of its results:

| Compound | pIC50 |
| --- | --- |
| CCOCCN(C)c1c(Cc2cccc(C)c2)c(CC)c(C)[nH]c1=O | 7.89 |
| CCc1c(C)[nH]c(=O)c(N2CCCCC2)c1Cc1cc(C)cc(C)c1 | 6.20 |
| CCc1c(C)[nH]c(=O)c(N(C)CCCO)c1Cc1cccc(C)c1 | 8.52 |
| CCc1c(C)[nH]c(=O)c(N(C)CCO)c1Cc1cccc(C)c1 | 8.30 |
| CCc1c(C)[nH]c(=O)c(NC(=S)Nc2ccccc2)c1Cc1cccc(C)c1 | 5.50 |
| CCc1c(C)[nH]c(=O)c(N(C)CCOC)c1Cc1cccc(C)c1 | 9.00 |
| CCc1c(C)[nH]c(=O)c(NCc2ccccc2)c1Cc1cc(C)cc(C)c1 | 6.60 |
| CCc1c(C)[nH]c(=O)c(N(C)CC)c1Cc1cccc(/C=C/C#N)c1 | 9.00 |
| CCc1c(C)[nH]c(=O)c(N(C)CCCC#N)c1Cc1cccc(C)c1 | 8.30 |
| CCNC(=S)Nc1c(Cc2cccc(C)c2)c(CC)c(C)[nH]c1=O | 4.60 |
| CCc1c(C)[nH]c(=O)c(N(C)CC#N)c1Cc1cccc(C)c1 | 8.40 |
| CCc1c(C)[nH]c(=O)c(N(Cc2ccccc2)Cc2ccccc2)c1Cc1cc(C)cc(C)c1 | 4.00 |
| CCc1c(C)[nH]c(=O)c(NC(N)=S)c1Cc1cccc(C)c1 | 6.50 |
| CCc1c(C)[nH]c(=O)c(N(C)CCC#N)c1Cc1cccc(C)c1 | 7.80 |
| CCc1c(C)[nH]c(=O)c(N(C)CCOC)c1Cc1cccc(/C=C/C#N)c1 | 9.00 |
